How the values were obtained:
[1] = tested on: VEGF; format: cell-based, cat
[2] = tested on: FOSCC cell lines (SCCF1, SCCF2, SCCF3); format: cell-based, cat; conditions: MTT assay
[3] = tested on: Bcl11b; format: cell-based, cat
[4] = tested on: canine glioblastoma J3T cells; test: cells; format: cell-based, dog; conditions: Canis lupus familiaris, 72 h, read-out: mean IC50
[5] = tested on: tubulin; format: cell-based, dog
[6] = parameters: species or system horses (Thoroughbreds); conditions: in vivo
[7] = dog, in vivo; cited from earlier work
[8] = format: in vivo, dog; conditions: intravenous bolus 2 mg/kg; 2 dogs
[9] = format: in vivo, cat; conditions: cats with CHF that received pimobendan; −561 in cats that did not; P = 0.045

## Cc1nc(Nc2ncc(C(=O)Nc3c(C)cccc3Cl)s2)cc(N2CCN(CCO)CC2)n1 [Dasatinib, dasatinib]
[1]
  VEGF production: suppressed VEGF production
[2]
  cell viability: lowered cell viability
[3]
  activation (phosphorylation) of Bcl11b: inhibited activation of Bcl11b

## COC(=O)Nc1nc2ccc(Sc3ccccc3)cc2[nH]1 [FBZ, fenbendazole]
[4]
  IC50: 550 nM
[5]
  tubulin depolymerization versus untreated control: increased depolymerization of tubulin

## COc1ccc2[nH]c([S+]([O-])Cc3ncc(C)c(OC)c3C)nc2c1 (stereo not drawn) [OME, omeprazole]
[6]
  gastric ulcer scores: significantly decreased

## N.N.[Cl][Pt][Cl] [cisplatin]
[7]
  reported MST for invasive thyroid carcinoma: 98 days

## CCN(CC)CC(=O)Nc1c(C)cccc1C [lidocaine]
[8]
  response of polymorphic ventricular tachycardia: no improvement was found

## COc1ccc(-c2nc3ccc(C4=NNC(=O)CC4C)cc3[nH]2)cc1 (stereo not drawn) [pimobendan]
[9]
  change in NT‐proBNP concentration from admission to discharge (median): -821 pmol/L

— article PMC5260423 (Journal of Veterinary Internal Medicine, 2016)
